“And” between values parts separate entries of the source, which are not always exact repeats. Equal entries are not always repeated.
System: Molp8 multiple myeloma cell line
Experiment: Molp8 multiple myeloma cell line survival assay using Annexin V and 7AAD
Format: cell-based, human
Conditions: live cell percent by Annexin V/7AAD flow cytometry, 3 days incubation; each independent run listed individually; read-out: MOLP8 Apoptosis IC50
Description: Molp8 multiple myeloma cell line survival assay using Annexin V and 7AAD.
The Annexin V/7AAD principle is based on the location of phosphatidylserine in the plasma membrane and the integrity of the membrane barrier. During early apoptosis, phosphatidylserine loses its normal distribution patterns in the inner leaflet of the plasma membrane and appears on the exterior of the plasma membrane. Annexin proteins are calcium dependent phospholipid binding proteins and can bind phosphatidylserine on the outer membrane during cell death. The viability dye 7AAD is excluded from entering cells with intact plasma membranes but accumulates in cells that have lost membrane integrity. Annexin Fitc is excited by the 488 nm laser (max excitation: 490 nm, max emission: 525 nm) as is 7AAD (excitation: 488 nm, emission: 650 nm), which allows this assay to be completed on any multicolor flow cytometer.
The assay conditions were optimized using the following 1× reaction buffer: 5 mM HEPES (4-(2-hydroxyethyl)-1-piperazineethanesulfonic acid), 70 mM NaCl, 1.25 mM CaCl2, pH 7.4.
The Molp 8 cells were multiple myeloma, human, in suspension (*cells were counted 2× per week and culture density maintained between 0.5 and 1.5×10^6 cells per ml).
On Day 1, 5×10^4 live cells per well were plated in a 96-well U-bottom plate, with the cells plated in 100 uL RPMI+10% FBS. An 11-point compound dilution plate was prepared in 3-fold steps (Final concentration range 10 μM-0.1 nM) and added at a concentration of 1 μL per well. The plate was then incubated for 3 days at 37° C. and 5% CO2.
On Day 4, the cells were pelleted and the media discarded. The cells were then resuspended in 50 μL AnnexinV-Fitc (1:40 dilution) and 7AAD (1:100 dilution) in Annexin binding buffer, then incubated for 30 min @ room temperature in the dark. 50 μL binding buffer (100 uL total volume) was then added to the cells. There was no wash step required.
Within 2 hours, PeCy5 (7AAD) and Fitc (Annexin) channels were recorded using BD Canto, collecting a minimum per singlet of 10,000 events.
The activity of a test compound was calculated based on the live cell percentage. • LC=Median of the low control values • =Low control: cells without treatment (no greater than 100% live) • HC=Median of the high control values • =High control: cells treated with 10 uM drug (no less than 0% live)
A best-fit curve was fitted by a minimum sum of squares method to the plot of live cell percent vs. compound concentration. From this an IC50 value (inhibitory concentration causing 50% cytotoxicity) was obtained. An estimate of the slope of the plot in terms of the Hill coefficient was also obtained.

## Cc1c(C(=O)O)n2c3ccc(Cl)c(c13)-c1c(nn(C)c1C)CSCc1cc(n(C)n1)CSc1cc(c3ccccc3c1)OCCC2 (single isomer, unassigned) [Compound 1, 1^5-chloro-1^3,2^1,2^5,6^1-tetramethyl-1^1H,2^1H,6^1H-10-oxa-4,8-dithia-1(4,1)-indola-2(4,3),6(3,5)-dipyrazola-9(3,1)-naphthalenacyclotridecaphane-1^2-carboxylic acid]
  IC50: 54 nM and 106 nM

## Cc1c(C(=O)O)n2c3ccc(Cl)c(c13)-c1c(nn(C)c1C)CSCc1cc(n(C)n1)CSc1cc(c3ccccc3c1)OCCC2 (single isomer, unassigned) [Compound 2, 1^5-chloro-1^3,2^1,2^5,6^1-tetramethyl-1′H,2′H,6H-10-oxa-4,8-dithia-1(4,1)-indola-2(4,3),6(3,5)-dipyrazola-9(3,1)-naphthalenacyclotridecaphane-1^2-carboxylic acid]
  IC50: 1300 nM and 7040 nM

Reference: US20220306653A1, “MACROCYCLIC INHIBITORS OF MCL-1” (Janssen Pharmaceutica NV, priority 2019, published 2022)
